From patent publication US20150010474A1, “Compounds And Methods For Selective Imaging And/Or Ablation” (Auckland Uniservices Limited, priority 2011, published 2015) come the findings set out here.

A word on the IC50: it is the concentration that inhibits the measured activity by half. Low values mean inhibition by little substance, high ones a need for much substance.

Experiment [1] concerns HCT116 wild type (WT) cancer cells. Description: Inhibition of cell proliferation, low cell density IC50 assay. It is filed as cell-based. To be noted: Homo sapiens, HCT-116; 4 hour drug exposure, washing and regrowth for 5 days. As to the method:
IC50 values were determined as the concentration of prodrug required to inhibit cell growth by 50% of untreated controls following 4 hour drug exposure, with washing and regrowth for 5 days. WT:NfsA ratios were determined as the WT IC50/NfsA IC50.

Experiment [2] deals with bacterial nitroreductase over-expressing E. coli strains. The experiment in a line: IC50 (turbidity) in selected NTR over-expressing library strains. It is filed as cell-based, Escherichia coli. The settings on record: 4 h post-challenge, serial dilution. As to the method:
FIG. 2.3 illustrates the IC50 of compound 67 for selected NTR library strains (i.e. the concentration of compound 67 that yielded only 50% turbidity relative to an unchallenged control 4 h post-challenge, in replicate cultures across a serial dilution of compound 67). The strains selected were all those observed to have SOS activity above the empty plasmid control (“Empty”) in response to challenge with compound 67 as illustrated in FIG. 2(B), plus NfsB (E.c) as a negative control. For the IC50 assays, 100 μl of overnight cultures were used to inoculate 2 ml M63 minimal medium supplemented with 100 μg·ml^−1 ampicillin and 50 μM IPTG and incubated at 30° C., 200 rpm for 3.5 h. 40 μL aliquots from each culture were then added to individual wells of a sterile 384 well plate, each already containing 40 μl of ampicillin and IPTG-supplemented M63 medium and a dilution series of compound 67 as indicated on the X-axis of panel A. A. Raw growth curves. Each NTR over-expression strain was tested at least in duplicate (independent replicates), with the exception of NfsB (E.c), which was only measured once. Culture turbidity was monitored by optical density at 600 nm 4 h post-challenge. B. IC50 values calculated by comparison of the challenged cells with the unchallenged control for each strain, after subtracting the initial absorbance values (t=0 h), using SigmaPlot 10.0 (Systat Software Inc., Richmond, Calif.). Errors are 1 standard error of the mean (SEM).
FIG. 2.4 illustrates the IC50 of compound 93 for selected NTR library strains. […] B. IC50 values calculated by comparison of the challenged cells with the unchallenged control for each strain, after subtracting the initial absorbance values (t=0 h), using SigmaPlot 10.0 (Systat Software Inc., Richmond, Calif.). […]
FIG. 2.5 illustrates the IC50 of compound 97 for selected NTR library strains. […] B. IC50 values calculated by comparison of the challenged cells with the unchallenged control for each strain, after subtracting the initial absorbance values (t=0 h), using SigmaPlot 10.0 (Systat Software Inc., Richmond, Calif.). […]

Experiment [3] relates to NTR over-expressing E. coli SOS-R2. The experiment in a line: Growth Inhibition assay in 58-membered NTR over-expression library. To be noted: 4 h incubation; 400 μM compound 67, 130 μM compound 93, 800 μM compound 97. It is filed as cell-based, Escherichia coli.
In experiment [4] the test system is human solid tumour xenograft NCI-H1299 (WT). Description: Hypoxia-dependent binding by fluorescent immunohistochemistry with pimonidazole co-staining. To be noted: 60 mg/kg i.p., 60 minutes after 60 mg/kg pimonidazole; tumours excised after 120 minutes. It is filed as in vivo, NIH-III nude mice. The protocol: FIG. 10 illustrates the absence of hypoxic-dependent binding of compound 67 and compound 93 by fluorescent immune-histochemistry in the human solid tumour xenograft NCI-H1299, with reference to hypoxia staining by compound 15 and pimonidazole (Hypoxyprobe™) as internal standards (positive controls). NCI-H1299 WT tumours were inoculated subcutaneously onto the flank of NIH-Ill nude mice. When the mixed tumours reached approximately 800 mm^3, mice were dosed i.p. with 60 mg/kg of pimonidazole, and 60 minutes later dosed with either 60 mg/kg of compound 15, or 60 mg/kg of compound 67, or 60 mg/kg of compound 93. After 120 minutes the tumours were excised, and fixed in formalin before being embedded in paraffin wax. Tumour section were cut (5 microns) and mounted onto glass slides for immunodetection of bound adducts of compounds. Immunofluorescent microscopy was performed using a monoclonal antibody (Mab1, hybridoma clone 4.3.11.3) conjugated to Alexa-488 (Ex/Em 499/519; green) for the detection of pimonidazole adducts, and monoclonal antibody ELK3-51 directly conjugated to the fluorophore CY5 (Ex/Em 650/670 nm; red) for detection of adducts formed by compound 15 or compound 67 or compound 93. The overlap of pimonidazole with any one of these markers appears as yellow. Images were acquired on a Zeiss LSM 710 confocal microscope (×20 magnification).

Experiment [5] shares this test system. The experiment in a line: Hypoxia-dependent binding by ex vivo flow cytometry with pimonidazole co-staining. The format is in vivo, NIH-III nude mice. The settings on record: 60 mg/kg i.p.; tumours excised after 120 minutes, single cell suspension. The protocol: FIG. 11 illustrates the absence of hypoxic-dependent binding of compound 67 and compound 93 by flow cytometry in the human solid tumour xenograft NCI-H1299, with reference to hypoxia staining by compound 15 and pimonidazole (Hypoxyprobe™) as internal standards (positive controls). NCI-H1299 WT tumours were inoculated subcutaneously onto the flank of NIH-III nude mice. When the mixed tumours reached approximately 800 mm^3, mice were dosed i.p. with 60 mg/kg of pimonidazole, and 60 minutes later dosed with either 60 mg/kg of compound 15, or 60 mg/kg of compound 67, or 60 mg/kg of compound 93. After 120 minutes the tumours were excised and enzyme digested to form a single cell suspension before fixation in ice cold 80% ethanol. Single cell immunodetection of bound adducts of compounds was performed using a monoclonal antibody (Mab1, hybridoma clone 4.3.11.3) conjugated to Alexa-488 (Ex/Em 499/519; green) for the detection of pimonidazole adducts, and monoclonal antibody ELK3-51 directly conjugated to the fluorophore CY5 (Ex/Em 650/670 nm; red) for detection of adducts formed by compound 15 or compound 67 or compound 93. The ex-vivo tumour cell samples were analysed on a Becton Dickinson FACscan flow cytometer using FACS Diva software. Integrated fluorescence measurements were recorded for 10,000 single non-debris events. Fluorescence emission was monitored at 530 nm±20 and 670-700 nm for detection of Alexa-488 and CY5 conjugated monoclonal antibodies, respectively.
In general terms: In flow cytometry, cells or beads pass a laser one at a time.

On to `Cc1ncc([N+](=O)[O-])n1CC(=O)NCC(F)(F)C(F)(F)F` [Compound 67, 2-(2-methyl-5-nitro-1H-imidazol-1-yl)-N-(2,2,3,3,3-pentafluoropropyl)acetamide], for which, in experiment [1], the IC50 is 6.31 mM. Further, in experiment [2], the “Inhibition of bacterial cell growth in NTR over-expressing strains compared to controls” value is “Inhibition of bacterial cell growth was selectively observed”. Further, the “Reductive metabolism at the nitro moiety by NTR library members (NfsA and NfsB families)” value in experiment [3] was “readily reductively metabolised at the nitro moiety by the majority of NfsA family members along with a subset of the NfsB family”. The “Hypoxia-dependent binding in NCI-H1299 WT tumours, immunofluorescent microscopy (FIG. 10)” value in experiment [4] was “not detected in the pimonidazole positive hypoxic regions of the NCI-H1299 tumours”. For the same compound, the “Hypoxia-dependent binding in NCI-H1299 WT tumours, flow cytometry (FIG. 11)” value in experiment [5] was “unable to bind to and thus detect pimonidazole-positive (hypoxic) tumour cells”.
`O=C(Cn1cnc([N+](=O)[O-])c1)NCC(F)(F)C(F)(F)F` [Compound 93, 2-(4-nitro-1H-imidazol-1-yl)-N-(2,2,3,3,3-pentafluoropropyl)acetamide]: the IC50 in experiment [1] came to 1.45 mM. The “Inhibition of bacterial cell growth in NTR over-expressing strains compared to controls” value in experiment [2] is on record as “Inhibition of bacterial cell growth was selectively observed”. Moreover, in experiment [3], the “Reductive metabolism at the nitro moiety by NTR library members (NfsA and NfsB families)” value is “selectively reductively metabolised at the nitro moiety by the NfsA family”. The “Hypoxia-dependent binding in NCI-H1299 WT tumours, immunofluorescent microscopy (FIG. 10)” value in experiment [4] was “not detected in the pimonidazole positive hypoxic regions of the NCI-H1299 tumours”. In experiment [5], the “Hypoxia-dependent binding in NCI-H1299 WT tumours, flow cytometry (FIG. 11)” value was “unable to bind to and thus detect pimonidazole-positive (hypoxic) tumour cells”.
